The text below walks through data of ChEMBL document CHEMBL5331060, “Bisindole natural products: A vital source for the development of new anticancer drugs” (Eur J Med Chem, 2022).

In experiment [1] the test system is MCF7. Briefly: Antiproliferative activity against human MCF7 cells assessed as inhibition of cell growth incubated for 72 hrs by SRB assay. The following applies: MCF7, 72 h. It counts as functional, cell-based. For orientation: In SRB staining, fixed cells bind dye roughly in proportion to their protein.
Experiment [2] concerns HCT-116. Briefly: Cytotoxicity against human HCT-116 cells assessed as reduction in cell viability at 20 uM measured after 48 hrs by MTS assay relative to control. It counts as functional.
Experiment [3] relates to A549. As to the kind of experiment: Antiproliferative activity against human A549 cells assessed as inhibition of cell growth incubated for 72 hrs by SRB assay. To be noted: A549, 72 h. It is filed as functional, cell-based.
Another experiment has as its system P388. Briefly: Antiproliferative activity against mouse P388 cells assessed as inhibition of cell growth. It counts as functional, cell-based.
In experiment [4] the test system is A549. Briefly: Antiproliferative activity against human A549 cells assessed as inhibition of cell growth. It counts as functional, cell-based.
For the next experiment, the system named is SW480. Briefly: Antiproliferative activity against human SW480 cells assessed as inhibition of cell growth. It is filed as functional, cell-based.
The subject of experiment [5] is SMMC-7721. Briefly: Antiproliferative activity against human SMMC-7721 cells assessed as inhibition of cell growth. It is filed as functional, cell-based.
Experiment [6] relates to MCF7. As to the kind of experiment: Antiproliferative activity against human MCF7 cells assessed as inhibition of cell growth. It counts as functional, cell-based.
The nature of experiment [7]: Antiproliferative activity against human AV3 cells assessed as inhibition of cell growth incubated for 72 hrs by MTT assay. It is filed as functional, cell-based. The following applies: AV3, 72 h. For orientation: Tetrazolium assays rely on reduction of a dye to a coloured formazan, in cell work by metabolically active cells.
The subject of another experiment is MDA-MB-231. Briefly: Antiproliferative activity against human MDA-MB-231 cells assessed as inhibition of cell growth incubated for 72 hrs by MTT assay. It counts as functional, cell-based. To be noted: MDA-MB-231, 72 h.
A further experiment concerns Huh-7. As to the kind of experiment: Antiproliferative activity against human Huh-7 cells assessed as inhibition of cell growth incubated for 72 hrs by MTT assay. It counts as functional, cell-based. The following applies: Huh-7, 72 h.
Experiment [8] relates to L1210. Briefly: Antiproliferative activity against mouse L1210 cells assessed as inhibition of cell growth. The following applies: L1210, read-out: ED50. It is filed as functional.
The subject of the next experiment is MIA PaCa-2. As to the kind of experiment: Antiproliferative activity against human MIA PaCa-2 cells assessed as inhibition of cell growth incubated for 72 hrs by MTT assay. It counts as functional, cell-based. To be noted: MIA PaCa-2, 72 h.
The next experiment has as its system PANC-1. As to the kind of experiment: Antiproliferative activity against human PANC-1 cells assessed as inhibition of cell growth incubated for 72 hrs by MTT assay. It counts as functional, cell-based. The following applies: PANC-1, 72 h.
The next experiment deals with BXPC-3. As to the kind of experiment: Antiproliferative activity against human BXPC-3 cells assessed as inhibition of cell growth incubated for 72 hrs by MTT assay. It counts as functional, cell-based. The following applies: BXPC-3, 72 h.
For another experiment, the system named is ASPC1. As to the kind of experiment: Antiproliferative activity against human ASPC1 cells assessed as inhibition of cell growth incubated for 72 hrs by MTT assay. It is filed as functional, cell-based. The following applies: ASPC1, 72 h.
For experiment [9], the system named is HCT-116. As to the kind of experiment: Antiproliferative activity against human HCT-116 cells assessed as inhibition of cell growth. It counts as functional, cell-based.
The test system of a further experiment is HL-60. As to the kind of experiment: Antiproliferative activity against human HL-60 cells assessed as inhibition of cell growth. It is filed as functional, cell-based.
Experiment [10] concerns L1210. Briefly: Antiproliferative activity against mouse L1210 cells assessed as inhibition of cell growth incubated for 24 hrs by MTT assay. It counts as functional, cell-based. The following applies: L1210, 24 h.
The subject of experiment [11] is HepG2. Briefly: Antiproliferative activity against human HepG2 cells assessed as inhibition of cell growth incubated for 24 hrs by MTT assay. It counts as functional, cell-based. To be noted: HepG2, 24 h.
A short description of experiment [12]: Antiproliferative activity against human BC cells assessed as inhibition of cell growth incubated for 24 hrs by MTT assay. It is filed as functional, cell-based.
The next experiment deals with AGS. As to the kind of experiment: Antiproliferative activity against human AGS cells assessed as inhibition of cell growth incubated for 24 hrs by MTT assay. It counts as functional, cell-based.
The subject of experiment [13] is SMMC-7721. Briefly: Antiproliferative activity against human SMMC-7721 cells assessed as inhibition of cell growth incubated for 48 hrs by MTS assay. To be noted: SMMC-7721, 48 h. It is filed as functional, cell-based.
The next experiment deals with HeLa. As to the kind of experiment: Antiproliferative activity against human HeLa cells assessed as inhibition of cell growth incubated for 48 hrs by MTS assay. It is filed as functional, cell-based.
The subject of experiment [14] is HepG2. As to the kind of experiment: Antiproliferative activity against human HepG2 cells assessed as inhibition of cell growth incubated for 48 hrs by MTS assay. It is filed as functional, cell-based. The following applies: HepG2, 48 h.
The test system of experiment [15] is A549. Briefly: Antiproliferative activity against human A549 cells assessed as inhibition of cell growth incubated for 48 hrs by MTS assay. The following applies: A549, 48 h. It is filed as functional, cell-based.

pIC50: −log10 of the molar value. Values after ≈ are worked out from the molar mass of the structure shown.

By pIC50 is commonly meant the negative decadic logarithm of the IC50, by convention in mol/L. As to `CC[C@H]1CN(C)[C@H]2Cc3c([nH]c4ccccc34)[C@H](c3c(OC)ccc4c5c([nH]c34)[C@]3(C(=O)OC)C[C@@H]4C[C@H](CC)[C@@H]3N(CC5)C4)C[C@H]1[C@@H]2C(=O)OC`, the pIC50 in the experiment with MCF7 [1] and with A549 [3] was 4.96 each time. The Activity with HCT-116 [2] amounted to 40%.
The term IC50 denotes the concentration that gives 50% inhibition. In the case of `COc1cc2c(cc1CC(C(C)=O)[C@@H]1C[C@H]3c4c(c5ccccc5n4C)C[C@@H]([C@@H]1CO)N3C)c1c(n2C)[C@@H]2C[C@H]3C(C(C)=O)=COC[C@H]3[C@H](C1)N2C` (stereo partly specified), the IC50 in the experiment with P388 came out at 12.3 µg/mL (≈ 17.4 µM).
For the compound `CC[C@@]12CC(C(=O)OC)=C3Nc4cc5c(cc4[C@@]34CCN(C[C@H]3O[C@H]31)[C@@H]24)[C@@H]1[C@H](O5)[C@@H](O)[C@@]2(CC)CC(C(=O)OC)=C3Nc4c(cc(O)c(OC)c4OC)[C@@]34CCN1[C@@H]24` [CONOPHYLLINE], the negative-log IC50 (pIC50) with A549 [4], in the experiment on SW480, in the experiment on SMMC-7721 [5] and with MCF7 [6] was 6.77 each time.
In the case of `C/C=C1/CCN2CC[C@@]34c5cc6c(cc5N(C)[C@]35OC[C@]4(C(=O)OC)[C@@H]1[C@H]25)O[C@@]12[C@@H]3C[C@H]4/C(=C\C)CN3CC[C@]1(C6)c1ccccc1N2[C@@H]4C(=O)OC`, the pIC50 (in [7]; in the experiment with MDA-MB-231; with Huh-7) was 5.01 each time.
On to `CN1C[C@H](c2c[nH]c3cc(Br)ccc23)NC[C@H]1c1c[nH]c2cc(Br)ccc12`, for which the EC50 in the experiment with L1210 [8] came to 10 µg/mL (≈ 20.5 µM).
Turning to `N=C(N)NCCSc1nc(-c2c[nH]c3cc(Br)ccc23)cnc1-c1c[nH]c2cc(Br)ccc12`, the pIC50 with MIA PaCa-2 is 4.59; in the experiment with PANC-1 it was 4.74; in the experiment on BXPC-3, 4.85; in the experiment on ASPC1, 4.57.
Take `C=C1[C@H]2C[C@@H]3N(CC[C@@]34c3cccc5c3N(C[C@H]3[C@H]6C[C@@H]7N(CC[C@@]78c7ccccc7N[C@@]538)C[C@H]6CC)[C@@H]14)C[C@H]2CC`: the pIC50 with A549 [4], with HCT-116 [9], in the experiment on HL-60 and in the experiment with MCF7 [6] was 5.42 throughout.
In the case of `C/C=C1\CN(C)[C@H]2Cc3c([nH]c4ccccc34)[C@H](c3c(O)ccc4c5c([nH]c34)[C@]3(C(=O)OC)C[C@@H]4C[C@H](CC)[C@@H]3N(CC5)C4)C[C@H]1[C@]2(CO)C(=O)OC`, the negative-log IC50 (pIC50) with A549 [4], with SW480, in the experiment with SMMC-7721 [5], in the experiment on HL-60 and in the experiment with MCF7 [6] was 6.77 in each case.
Take `O=C1N[C@@H](c2c[nH]c3cc(Br)ccc23)CN=C1c1c[nH]c2cc(Br)ccc12` [HAMACANTHIN A]: the IC50 with L1210 [10] was 1.1 µg/mL (≈ 2.26 µM); in the experiment on HepG2 [11] it was 12.5 µg/mL (≈ 25.7 µM); in experiment [12], 10.7 µg/mL (≈ 22 µM); with AGS, 1.1 µg/mL (≈ 2.26 µM).
As for `CC[C@@H]1CN(C)[C@H]2Cc3c([nH]c4ccccc34)[C@H](c3cc4c5c([nH]c4cc3OC)[C@@]3(C(=O)OC)C[C@H]4C[C@@H](CC)[C@@H]3N(CC5)[C@H]4CC(C)=O)C[C@H]1[C@@H]2C(=O)OC`, the pIC50 in the experiment with MCF7 [1] and with A549 [3] was more than 5.00 throughout. Besides, the Activity in the experiment on HCT-116 [2] was determined as 70%.
Regarding `CC[C@]12CCCn3c(Cc4cc5c6n4CCC[C@]6(CC)CCC(=O)Nc4ccccc4-5)cc(c31)-c1ccccc1NC(=O)CC2`, the pIC50 in the experiment with SMMC-7721 [13] was 5.37; in the experiment with HeLa, 5.36; with HepG2 [14] it was 5.15; in the experiment with A549 [15] it was 4.79.
